This passage reports T/C results from PubChem BioAssay AID330 (DTP/NCI, 2004).

“And” between values parts separate entries of the source, which are not always exact repeats. Identical values can stand only once. Inconclusive results and toxic doses are left out. Square brackets hold non-standard residues; d marks the D form. Peptide text beside a SMILES is read from it. Ac5c = NC1(C(=O)O)CCCC1

The test relates to P388 leukemia ip, CD2F1 mice, survival T/C. The test is described as follows: NCI In Vivo Anticancer Drug Screen. Data for tumor model P388 Leukemia (intraperitoneal) in CD2F1 (CDF1) mice. The note with it: endpoint: median survival time, higher = longer survival. The essentials: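 Mice carrying the transplanted tumor received test compound or vehicle. Survival was recorded in each group, and the value is the treated-group measurement divided by that of the vehicle-treated control group.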

Where [1] appears, read: dose: 12.5 mg/kg/injection, schedule: Q01DX009 (ip), vehicle: saline.
Where [2] appears, read: dose: 25.0 mg/kg/injection, schedule: Q01DX009 (ip), vehicle: saline.
Setting [3] is: dose: 50.0 mg/kg/injection, schedule: Q01DX009 (ip), vehicle: saline with Tween-80.
[4] abbreviates: dose: 100.0 mg/kg/injection, schedule: Q01DX009 (ip), vehicle: saline with Tween-80.
Where [5] appears, read: dose: 25.0 mg/kg/injection, schedule: Q01DX009 (ip), vehicle: Klucel (hydroxypropylcellulose) (HPC).
The mark [6] stands for this setting: dose: 50.0 mg/kg/injection, schedule: Q01DX009 (ip), vehicle: Klucel (hydroxypropylcellulose) (HPC).
Setting [7] is: dose: 100.0 mg/kg/injection, schedule: Q01DX009 (ip), vehicle: Klucel (hydroxypropylcellulose) (HPC).
The mark [8] stands for this setting: dose: 200.0 mg/kg/injection, schedule: Q01DX009 (ip), vehicle: Klucel (hydroxypropylcellulose) (HPC).
Where [9] appears, read: dose: 60.0 mg/kg/injection, schedule: Q01DX005 (ip), vehicle: saline with Tween-80.
The mark [10] stands for this setting: dose: 120.0 mg/kg/injection, schedule: Q01DX005 (ip), vehicle: saline with Tween-80.
[11] abbreviates: dose: 240.0 mg/kg/injection, schedule: Q01DX005 (ip), vehicle: saline with Tween-80.
The mark [12] stands for this setting: dose: 50.0 mg/kg/injection, schedule: Q01DX005 (ip), vehicle: Klucel (hydroxypropylcellulose) (HPC).

In the case of `CC(C)(C)N=C(CCN1CCN(c2ccccc2)CC1)Nc1c(Cl)cccc1Cl`, the T/C under setting [1] was 91 % of control; the T/C under setting [2] was 97 % of control; the T/C under setting [3] is 94 % of control; the T/C (dose: 50.0 mg/kg/injection, schedule: Q01DX009 (ip), vehicle: saline) was 100 % of control; the T/C under setting [4] was 96 % of control.
As for `Cc1cc(=O)n(-c2ccc(S(=O)(=O)N=C(N)N)cc2)c(C)c1C(=O)O`, the T/C is 102 % of control (dose: 50.0 mg/kg/injection, schedule: Q01DX005 (ip), vehicle: saline with Tween-80); 106 % of control (dose: 100.0 mg/kg/injection, schedule: Q01DX005 (ip), vehicle: saline with Tween-80); 103 % of control (dose: 200.0 mg/kg/injection, schedule: Q01DX005 (ip), vehicle: saline with Tween-80).
For the compound `NCC(=O)NCC(=O)NC1(C(=O)O)CCCC1` (H-Gly-Gly-[Ac5c]-OH), the T/C is 102 % of control and 103 % of control (dose: 50.0 mg/kg/injection, schedule: Q01DX005 (ip), vehicle: saline); 110 % of control and 113 % of control (dose: 100.0 mg/kg/injection, schedule: Q01DX005 (ip), vehicle: saline); 110 % of control (dose: 200.0 mg/kg/injection, schedule: Q01DX005 (ip), vehicle: saline); 116 % of control and 87 % of control (dose: 400.0 mg/kg/injection, schedule: Q01DX005 (ip), vehicle: saline).
As to `CN(C)c1nc(Cl)c2cc(Cl)ccc2n1`, the T/C is, setting by setting: (dose: 60.0 mg/kg/injection, schedule: Q01DX005 (ip), vehicle: Klucel (hydroxypropylcellulose) (HPC)) 100 % of control; (dose: 120.0 mg/kg/injection, schedule: Q01DX005 (ip), vehicle: Klucel (hydroxypropylcellulose) (HPC)) 99 % of control.
With `O=C(Nc1nccs1)Nc1cc(F)ccc1F`, the T/C reads like this: under setting [5], 90 % of control; under setting [6], 90 % of control; under setting [7], 90 % of control; under setting [8], 90 % of control.
On to `CCOC(=O)C1CN2C(=O)CCC2C1=O` (configuration not stated), for which the T/C is, setting by setting: (dose: 60.0 mg/kg/injection, schedule: Q01DX005 (ip), vehicle: saline) 104 % of control; (dose: 120.0 mg/kg/injection, schedule: Q01DX005 (ip), vehicle: saline) 103 % of control; (dose: 240.0 mg/kg/injection, schedule: Q01DX005 (ip), vehicle: saline) 103 % of control.
Regarding `CSc1nnc(CCC(=O)Nc2cc(Cl)ccc2Cl)o1`, the T/C is 109 % of control under setting [9], 100 % of control under setting [10] and 97 % of control under setting [11].
Turning to `CC(=O)Nc1ccc(C(=O)O)c([N+](=O)[O-])c1`, the T/C is 100 % of control under setting [5], 107 % of control under setting [6], 102 % of control under setting [7] and 107 % of control under setting [8].
For the compound `COc1ccc(/C=N/NC(=O)c2ccc(Cl)cc2Cl)cc1OC`, the T/C was 96 % of control under setting [9], 96 % of control under setting [10] and 92 % of control under setting [11].
Consider `Cc1cn(CCCn2cnc3cncnc32)c(=O)[nH]c1=O`, for which the T/C was 98 % of control (dose: 50.0 mg/kg/injection, schedule: Q01DX005 (ip), vehicle: suspension in saline); 105 % of control (dose: 100.0 mg/kg/injection, schedule: Q01DX005 (ip), vehicle: suspension in saline); 96 % of control (dose: 200.0 mg/kg/injection, schedule: Q01DX005 (ip), vehicle: suspension in saline).
With `COc1cccc2c1C(=O)c1c(O)c3c(c(O)c1C2=O)C[C@@](O)(C(=O)CO)C[C@@H]3OC1CC(NCc2ccccc2)C(O)C(C)O1` (some centres not stated), the T/C is 150 % of control (dose: 0.39 mg/kg/injection, schedule: Q01DX009 (ip), vehicle: water); 151 % of control (dose: 0.78 mg/kg/injection, schedule: Q01DX009 (ip), vehicle: water); 153 % of control and 158 % of control (dose: 1.56 mg/kg/injection, schedule: Q01DX009 (ip), vehicle: water); 175 % of control and 194 % of control (dose: 3.13 mg/kg/injection, schedule: Q01DX009 (ip), vehicle: water); 163 % of control (dose: 3.89 mg/kg/injection, schedule: Q04DX003 (ip), vehicle: water); 107 % of control and 224 % of control (dose: 6.25 mg/kg/injection, schedule: Q01DX009 (ip), vehicle: water). For the same compound, the T/C reads like this: (dose: 6.48 mg/kg/injection, schedule: Q04DX003 (ip), vehicle: water) 175 % of control; (dose: 10.8 mg/kg/injection, schedule: Q04DX003 (ip), vehicle: water) 201 % of control; (dose: 18.0 mg/kg/injection, schedule: Q04DX003 (ip), vehicle: water) 105 % of control; (dose: 30.0 mg/kg/injection, schedule: Q04DX003 (ip), vehicle: water) 94 % of control.
For `OCCNCCNCC[OH2+].OCCNCCNCC[OH2+].[Ni+2].[O-][Cl+3]([O-])([O-])[O-]`, the T/C was 100 % of control under setting [1] and 98 % of control under setting [2].
`CC(Oc1ccccc1)C(=O)O` (configuration not stated): the T/C is 98 % of control under setting [3] and 97 % of control under setting [4].
With `Cc1csc(NC(=S)N(C)C)n1`, the T/C by setting is: (dose: 100.0 mg/kg/injection, schedule: Q04DX002 (ip), vehicle: saline with Tween-80) 103 % of control; (dose: 200.0 mg/kg/injection, schedule: Q04DX002 (ip), vehicle: saline with Tween-80) 101 % of control; (dose: 400.0 mg/kg/injection, schedule: Q04DX002 (ip), vehicle: saline with Tween-80) 101 % of control.
`CCOC(=O)c1ccc(NCc2cccc([N+](=O)[O-])c2)cc1`: the T/C is 109 % of control (dose: 100.0 mg/kg/injection, schedule: Q04DX003 (ip), vehicle: saline); 101 % of control (dose: 200.0 mg/kg/injection, schedule: Q04DX003 (ip), vehicle: saline); 101 % of control (dose: 400.0 mg/kg/injection, schedule: Q04DX003 (ip), vehicle: saline).
Regarding `C/C(=N\O)c1ccc2c3c(ccc([N+](=O)[O-])c13)CC2`, the T/C (dose: 6.25 mg/kg/injection, schedule: Q01DX009 (ip), vehicle: suspension in saline) was 97 % of control; the T/C (dose: 12.5 mg/kg/injection, schedule: Q01DX009 (ip), vehicle: suspension in saline) is 98 % of control; the T/C (dose: 25.0 mg/kg/injection, schedule: Q01DX009 (ip), vehicle: suspension in saline) was 97 % of control; the T/C (dose: 50.0 mg/kg/injection, schedule: Q01DX009 (ip), vehicle: suspension in saline) was 96 % of control.
On to `CC1C=C(COC(=O)Nc2ccccc2)ON1c1ccccc1` (configuration not stated), for which the T/C was 108 % of control (dose: 100.0 mg/kg/injection, schedule: Q01DX001 (ip), vehicle: Klucel (hydroxypropylcellulose) (HPC)); 97 % of control (dose: 200.0 mg/kg/injection, schedule: Q01DX001 (ip), vehicle: Klucel (hydroxypropylcellulose) (HPC)); 100 % of control (dose: 400.0 mg/kg/injection, schedule: Q01DX001 (ip), vehicle: Klucel (hydroxypropylcellulose) (HPC)).
For `c1cnc2ccc3ncccc3c2c1`, the T/C by setting is: (dose: 12.5 mg/kg/injection, schedule: Q01DX005 (ip), vehicle: Klucel (hydroxypropylcellulose) (HPC)) 99 % of control; (dose: 25.0 mg/kg/injection, schedule: Q01DX005 (ip), vehicle: Klucel (hydroxypropylcellulose) (HPC)) 96 % of control; under setting [12], 100 % of control and 97 % of control.
For `S=P(Nc1ccccc1)(Nc1ccccc1)c1ccccc1`, the T/C is, setting by setting: under setting [7], 103 % of control; under setting [8], 106 % of control; (dose: 400.0 mg/kg/injection, schedule: Q01DX009 (ip), vehicle: Klucel (hydroxypropylcellulose) (HPC)) 95 % of control.
As to `O=c1cccccc1O.O=c1cccccc1O.O=c1cccccc1O.[Ru]`, the T/C reads like this: under setting [12], 96 % of control; (dose: 100.0 mg/kg/injection, schedule: Q01DX005 (ip), vehicle: Klucel (hydroxypropylcellulose) (HPC)) 100 % of control; (dose: 200.0 mg/kg/injection, schedule: Q01DX005 (ip), vehicle: Klucel (hydroxypropylcellulose) (HPC)) 116 % of control.
Turning to `O=C(Nc1ccc(Br)c2ccccc12)c1ccc2ccccc2c1O`, the T/C was 91 % of control under setting [9] and 92 % of control under setting [10].
As for `CCOC(=O)c1nc(Cl)cn(O)c1=N`, the T/C is 104 % of control under setting [4]; 99 % of control (dose: 200.0 mg/kg/injection, schedule: Q01DX009 (ip), vehicle: saline with Tween-80); 93 % of control (dose: 400.0 mg/kg/injection, schedule: Q01DX009 (ip), vehicle: saline with Tween-80).
Take `N#Cc1cn(C2OC(CO)C(O)C2O)c2ncnc(Cl)c12` (configuration not stated): the T/C under setting [9] was 151 % of control and 174 % of control; the T/C under setting [10] was 111 % of control.
